Reference: publication PMC10056636, “3-Amino-Substituted Analogues of Fusidic Acid as Membrane-Active Antibacterial Compounds” (Membranes, 2023)
Values after ≈ are worked out from the molar mass of the structure shown. Where two headings read alike, the source gives them in different places.

Columns and labels:
[1] = Hemolysis assay; assay type: cell-based, human; conditions: for hemolysis at 1 h: human, Dmax (maximal percentage of hemolysis)
Method: (§1) Human whole blood was washed three times with 3 volumes of 0.9% NaCl and then resuspended in the same medium to a concentration of 0.5 × 10^8 cells/mL, as determined by manual cell count in a Neubauer hemocytometer. The washed cells were then added to 384-well plates containing the test compounds to a final volume of 50 µL. After shaking on a plate shaker for 10 min, the plates were incubated for 1 h at 37 °C. After incubation, the plates were centrifuged at 1000× g for 10 min to pellet the cells and debris; 25 µL of the supernatant was then transferred to a polystyrene 384-well assay plate.
(§2) Hemolysis was monitored by measuring the supernatant absorbance at […] (OD405). The absorbance was measured using a Tecan M1000 Pro monochromator plate reader. HC10 and HC50 (10% and 50% hemolysis concentrations, respectively) were calculated by curve fitting of inhibition vs. log(concentration) using a sigmoidal dose–response function with variable fitting values for top, bottom, and slope. In addition, the maximal percentage of hemolysis is reported as DMax, indicating any compounds with partial hemolysis. The curve fitting was implemented using Pipeline Pilot’s dose–response component. […] Any value with > indicated sample with no activity (low DMax value) or samples with HC10 values above the maximum tested concentration (higher DMax value).
(§3) In addition, samples were flagged as partially hemolytic if DMax ≥ 50%, even for HC10 > the maximum tested concentration. […]

[2] = tested on: human red blood cells; assay: Hemolysis assay; assay type: cell-based; conditions: human, 1 h
Method: as §1, §2, §3

[3] = tested on: human embryonic kidney cell line HEK293 (ATCC CRL-1573); assay: in vitro; assay type: cell-based; conditions: for CC50: human, 20 h
Method: (§4) HEK293 cells were counted manually in a Neubauer hemocytometer and then plated in 384-well plates containing the test compounds to give a density of 5000 cells per well in a final volume of 50 µL. DMEM supplemented with 10% FBS was used as the growth medium, and the cells were incubated together with the compounds for 20 h at 37 °C in 5% CO2.
(§5) The cytotoxicity (or cell viability) was measured by fluorescence, ex: 560/10 nm, em: 590/10 nm (F560/590), after addition of 5 µL of 25 µg/mL resazurin (2.3 µg/mL final concentration) and after incubation for further 3 h at 37 °C in 5% CO2. The fluorescence intensity was measured using a Tecan M1000 Pro monochromator plate reader with automatic gain control. The CC50 (50% cytotoxicity concentration) values were calculated by curve fitting of inhibition vs. log(concentration) using a sigmoidal dose–response function, with variable fitting values for bottom, top, and slope. In addition, the maximal percentage of cytotoxicity is reported as DMax, indicating any compounds with partial cytotoxicity. The curve fitting was implemented using Pipeline Pilot’s dose–response component. The results were similar to those obtained by other curve-fitting tools, such as GraphPad’s Prism and IDBS’s XlFit. Any value with > indicated samples with no activity (low DMax value) or samples with CC50 values above the maximum tested concentration (higher DMax value).
(§6) In addition, samples were flagged as partially cytotoxic if DMax ≥ 50%, even for CC50 > the maximum tested concentration.
(§7) Tamoxifen served as a positive cytotoxicity standard. Melittin was used as a positive hemolytic standard.

[4] = in vitro; assay type: cell-based, human; conditions: human, CC50
Method: as §4, §5, §6, §7

[5] = tested on: Staphylococcus aureus (ATCC 43300) (MRSA); assay: Antibacterial whole-cell growth inhibition (MIC, CO-ADD); assay type: cell-based; conditions: for primary screening: antimicrobial activity: S. aureus (MRSA), primary screen at 32 μg/mL
Method: (§8) Antibacterial screening was carried out by the serial dilution method. All bacteria were cultured in the cation-adjusted Mueller Hinton broth (CAMHB) at 37 °C overnight. A sample of each culture was then diluted 40-fold in fresh broth and incubated at 37 °C for 1.5–3 h. The resultant mid-log phase cultures were diluted (CFU/mL measured by OD600) and then added into each well containing a test compound, giving a cell density of 5 × 10^5 CFU/mL and a total volume of 50 µL. All the plates were covered and incubated at 37 °C for 18 h without shaking.
(§9) Inhibition of bacterial growth was determined by measuring the absorbance at 600 nm (OD600) with a Tecan M1000 Pro monochromator plate reader. […]

[6] = tested on: Cryptococcus neoformans (ATCC 208821); assay: Antifungal growth inhibition (MIC, CO-ADD); conditions: for MIC: inhibition ≥70%, two replicates per cell; for primary screening: growth inhibition: primary screen at 32 μg/mL
Method: Antimicrobial, cytotoxicity, and hemolytic activity screening of the synthesized derivatives was carried out in the CO-ADD (The Community for Antimicrobial Drug Discovery) (http://www.co-add.org, accessed on 24 November 2020) and included analysis for antibacterial properties, cytotoxicity, and hemolytic activity.
The hit confirmation test included five bacteria, Escherichia coli (ATCC 25922), Klebsiella pneumoniae (ATCC 700603), Acinetobacter baumannii (ATCC 19606), Pseudomonas aeruginosa (ATCC 27853), and Staphylococcus aureus (ATCC 43300), and two fungi, Candida albicans (ATCC 90028) and Cryptococcus neoformans (ATCC 208821). […] The compounds were also screened for hemolysis of human red blood cells (human whole blood, strain ARCBS 5400 00150).
Samples were prepared in DMSO and water to a final testing concentration of 32 µg/mL or 20 µM (unless otherwise indicated in the data sheet) and serially diluted twofold up to 8 times. Each sample concentration was prepared in 384-well plates: non-binding surface plate (NBS; Corning 3640) for each bacterial/fungal strain, tissue-culture treated (TC-treated; Corning 3712/3764) black for mammalian cell types and polypropylene 384-well plates (PP; Corning 3657) for hemolysis assays. The final DMSO concentration was maintained to a maximum of 0.5%. All sample preparation procedures were performed using liquid-handling robots. All screening was performed as two replica (n = 2), with both replicas on different assay plates, but from single plating and performed in a single screening experiment (microbial incubation). In addition, two values are used as quality controls for individual plates: Z′-Factor [1 − (3* (sd(NegCtrl) + sd(PosCtrl))/(average(PosCtrl)-average(NegCtrl)))] and standard antibiotic controls at different concentrations (>MIC and <MIC).
Fungi strains were cultured for 3 days on yeast extract-peptone dextrose (YPD) agar at 30 °C. A yeast suspension of 1 × 10^6 to 5 × 10^6 CFU/mL (as determined by OD530) was prepared from five colonies. The suspension was subsequently diluted and added to each well containing a test compound, giving a final cell density of fungi suspension of 2.5 × 10^3 CFU/mL and a total volume of 50 µL. All plates were covered and incubated at 35 °C for 36 h without shaking.
The absorbance was measured using a Biotek Multiflo Synergy HTX plate reader. In both cases, the percentage of growth inhibition was calculated for each well, using the negative control (media only) and positive control (fungi without inhibitors) in the same plate. […] In addition, the maximal percentage of growth inhibition is reported as DMax, indicating any compounds with marginal activity.
Fluconazole was used as a positive fungal inhibitor standard for C. albicans and C. neoformans. […] The quality control (QC) of the assays was performed using Z′-factors calculated from the negative (media only) and positive controls (bacterial, fungal, or cell culture without inhibitor) and the standards.

[7] = tested on: Acinetobacter baumannii (ATCC 19606); assay: Antibacterial whole-cell growth inhibition (MIC, CO-ADD); assay type: cell-based; conditions: A. baumannii, two replicates per cell
Method: as §8, §9

[8] = tested on: Escherichia coli (ATCC 25922); assay: as above; assay type: cell-based; conditions: E. coli, two replicates per cell
Method: as §8, §9

[9] = tested on: Pseudomonas aeruginosa (ATCC 27853); assay: as above; assay type: cell-based; conditions: P. aeruginosa, two replicates per cell
Method: as §8, §9

[10] = tested on: Candida albicans (ATCC 90028); assay: Antifungal growth inhibition (MIC, CO-ADD); assay type: cell-based
[11] = Staphylococcus aureus, S. aureus (MRSA) ATCC 43300, inhibition ≥80%, two replicates (n = 2), read-out: MIC
[12] = S. aureus (MRSA) ATCC 43300, inhibition ≥80%, two replicates (n = 2)
[13] = Cryptococcus neoformans, ATCC208821, C. neoformans
[14] = Acinetobacter baumannii, ATCC19606, read-out: MIC
[15] = Escherichia coli, ATCC25922, read-out: MIC
[16] = Pseudomonas aeruginosa, ATCC27853, read-out: MIC
[17] = C. albicans, inhibition ≥80%, two replicates per cell
[18] = Candida albicans, ATCC90028, C. albicans, inhibition ≥80%, two replicates per cell, read-out: MIC

| Molecule | hemolysis at 1 h [1] [%] | Dmax (maximal percentage of hemolysis) [2] [%] | HC50 [2] | CC50 [3] | CC50 at 20 h [4] [µg/mL] | primary screening: antimicrobial activity [5] | MIC [5, 11] [µg/mL] | MIC [5, 12] [µg/mL] | other results |
| --- | --- | --- | --- | --- | --- | --- | --- | --- | --- |
| CC(=O)O[C@H]1C[C@@]2(C)[C@@H](CC(=O)[C@H]3[C@@]4(C)CCC(=O)[C@@H](C)[C@@H]4CC[C@@]32C)/C1=C(\CCC=C(C)C)C(=O)O [Compound 1] | 7.3 | 10.6 | >32 >32 µg/mL | >32 >32 µg/mL | > 32 | showed antimicrobial activity | 8 (≈ 15.6 µM) |  |  |
| CC(=O)O[C@H]1C[C@@]2(C)[C@@H](CC(=O)[C@H]3[C@@]4(C)CC[C@H](N5CCCC5)[C@@H](C)[C@@H]4CC[C@@]32C)/C1=C(\CCC=C(C)C)C(=O)O [Compound 7] | 2.3 | 2.6 | >32 >32 µg/mL | >32 >32 µg/mL | > 32 | showed antimicrobial activity | 8 (≈ 14.1 µM) |  |  |
| CC(=O)O[C@H]1C[C@@]2(C)[C@@H](CC(=O)[C@H]3[C@@]4(C)CC[C@H](NCc5ccccc5)[C@@H](C)[C@@H]4CC[C@@]32C)/C1=C(\CCC=C(C)C)C(=O)O [Compound 9] | 3.7 | 2.3 | >32 >32 µg/mL | >32 >32 µg/mL | > 32 | showed antimicrobial activity | 8 (≈ 13.2 µM) |  |  |
| COC(=O)/C(CCC=C(C)C)=C1\[C@@H](OC(C)=O)C[C@@]2(C)[C@H]1C[C@@H](O)[C@H]1[C@@]3(C)CC[C@H](NCCN)[C@@H](C)[C@@H]3CC[C@@]12C [Compound 12] | 34.8 | 27.8 | >32 >32 µg/mL | 13.2 µg/mL (≈ 23 µM) | 7.77 (≈ 13.6 µM) | showed antimicrobial activity | 32 (≈ 55.9 µM) | 32 (≈ 55.9 µM) | MIC ([6]; C. neoformans): 16 µg/mL (≈ 27.9 µM); primary screening: growth inhibition ([6]; C. neoformans): inhibited the growth; MIC [6, 13]: 16 µg/mL (≈ 27.9 µM) |
| CCCCN[C@H]1CC[C@@]2(C)[C@@H](CC[C@@]3(C)[C@H]2[C@H](O)C[C@H]2/C(=C(\CCC=C(C)C)C(=O)OC)[C@@H](OC(C)=O)C[C@@]23C)[C@@H]1C [Compound 14] | 3.4 | 3.6 | >32 >32 µg/mL | 23.8 µg/mL (≈ 40.6 µM) | 26 (≈ 44.4 µM) | showed antimicrobial activity | 32 (≈ 54.6 µM) | 32 (≈ 54.6 µM) |  |
| COC(=O)/C(CCC=C(C)C)=C1\[C@@H](OC(C)=O)C[C@@]2(C)[C@H]1C[C@@H](O)[C@H]1[C@@]3(C)CC[C@H](NCc4ccccc4)[C@@H](C)[C@@H]3CC[C@@]12C [Compound 18] |  |  | >32 >32 µg/mL | 17.5 µg/mL (≈ 28.2 µM) | 17.8 (≈ 28.7 µM) | showed antimicrobial activity | 16 (≈ 25.8 µM) | 16 (≈ 25.8 µM) | MIC ([6]; C. neoformans): 32 µg/mL (≈ 51.6 µM); primary screening: growth inhibition ([6]; C. neoformans): inhibited the growth; MIC [6, 13]: 32 µg/mL (≈ 51.6 µM) |
| CC(=O)O[C@H]1C[C@@]2(C)[C@@H](C[C@@H](O)[C@H]3[C@@]4(C)CC[C@H](NCCCNCCCCN)[C@@H](C)[C@@H]4CC[C@@]32C)/C1=C(\CCC=C(C)C)C(=O)O [Compound 19] | 5.5 | 5.3 | >32 >32 µg/mL | >32 >32 µg/mL | > 32 |  |  | 32 (≈ 49.7 µM) | MIC [7]: >32 >32 µg/mL; MIC [7, 14]: > 32 µg/mL; MIC [8]: >32 >32 µg/mL; MIC [8, 15]: > 32 µg/mL; MIC [9]: >32 >32 µg/mL; MIC [9, 16]: > 32 µg/mL; MIC [10, 17]: >32 >32 µg/mL; MIC [10, 18]: > 32 µg/mL |
| CC(=O)O[C@H]1C[C@@]2(C)[C@@H](C[C@@H](O)[C@H]3[C@@]4(C)CC[C@H](NCCCNCCCCNCCCN)[C@@H](C)[C@@H]4CC[C@@]32C)/C1=C(\CCC=C(C)C)C(=O)O [Compound 21] | 8.7 | 6.4 | >32 >32 µg/mL | > 32 µg/mL | 24.2 (≈ 34.5 µM) |  | 2 to 8 (≈ 2.85 to 11.4 µM) |  | MIC [7]: 32 µg/mL (≈ 45.6 µM); MIC [7, 14]: 32 µg/mL (≈ 45.6 µM); MIC [8]: 32 µg/mL (≈ 45.6 µM); MIC [8, 15]: 32 µg/mL (≈ 45.6 µM); MIC [9]: 32 µg/mL (≈ 45.6 µM); MIC [9, 16]: 32 µg/mL (≈ 45.6 µM); MIC [10, 17]: 32 µg/mL (≈ 45.6 µM); MIC [10, 18]: 32 µg/mL (≈ 45.6 µM) |
| OC(Cn1cncn1)(Cn1cncn1)c1ccc(F)cc1F [Fluconazole, reference compound] |  |  |  |  |  |  |  |  | MIC [6, 13]: 8 µg/mL (≈ 26.1 µM); MIC ([10]; Candida albicans, ATCC90028): 0.125 µg/mL (≈ 0.408 µM) |
| CC[C@H](C)[C@H](NC(=O)CN)C(=O)NCC(=O)N[C@@H](C)C(=O)N[C@H](C(=O)N[C@@H](CC(C)C)C(=O)N[C@@H](CCCCN)C(=O)N[C@H](C(=O)N[C@@H](CC(C)C)C(=O)N[C@H](C(=O)N[C@H](C(=O)NCC(=O)N[C@@H](CC(C)C)C(=O)N1CCC[C@H]1C(=O)N[C@@H](C)C(=O)N[C@@H](CC(C)C)C(=O)N[C@H](C(=O)N[C@@H](CO)C(=O)N[C@@H](Cc1c[nH]c2ccccc12)C(=O)N[C@H](C(=O)N[C@@H](CCCCN)C(=O)N[C@@H](CCCNC(=N)N)C(=O)N[C@@H](CCCCN)C(=O)N[C@@H](CCCNC(=N)N)C(=O)N[C@@H](CCC(N)=O)C(=O)N[C@@H](CCC(N)=O)C(N)=O)[C@@H](C)CC)[C@@H](C)CC)[C@@H](C)O)[C@@H](C)O)C(C)C)C(C)C [Melittin, reference compound] |  |  |  |  |  |  |  |  | hemolysis ([1]; human erythrocytes, two replicates per cell, read-out: Dmax (maximal percentage of hemolysis)): 50% |
| CC/C(=C(\c1ccccc1)c1ccc(OCCN(C)C)cc1)c1ccccc1 [Tamoxifen, reference compound] |  |  |  |  | 9 (≈ 24.2 µM) |  |  |  | Dmax (maximal percentage of cytotoxicity) [3]: 50% |
| CN[C@H](CC(C)C)C(=O)N[C@H]1C(=O)N[C@@H](CC(N)=O)C(=O)N[C@H]2C(=O)N[C@H]3C(=O)N[C@H](C(=O)N[C@H](C(=O)O)c4cc(O)cc(O)c4-c4cc3ccc4O)[C@H](O)c3ccc(c(Cl)c3)Oc3cc2cc(c3O[C@@H]2O[C@H](CO)[C@@H](O)[C@H](O)[C@H]2O[C@H]2C[C@](C)(N)[C@H](O)[C@H](C)O2)Oc2ccc(cc2Cl)[C@H]1O [Vancomycin, reference compound] |  |  |  |  |  |  |  |  | MIC ([5]; Staphylococcus aureus): 1 µg/mL (≈ 0.69 µM) |
| Colistin [reference compound] |  |  |  |  |  |  |  |  | MIC [7]: 0.25 µg/mL; MIC [8]: 0.125 µg/mL; MIC [9]: 0.25 µg/mL |
